Source: article PMC11063903, “Engineering a human P2X2 receptor with altered ligand selectivity in yeast” (The Journal of Biological Chemistry, 2024)
Positions count from the first letter of the chain named. pEC50: −log10 of the molar value.

What was measured:
[1] = biological target: T1, P2X2 F303Y+A304W (Homo sapiens, UniProt Q9UBL9, A304W/F303Y); experiment: Fast GCaMP-mScarletI assay in yeast, P2X2 F303Y+A304W; type: cell-based; settings: for Bottom, best fit value / Hillslope, best fit value / Top, best fit value: four-parameter logistic fit of ΔF/ΔT
T1 construct: expressed in transfected cells; host or cells: S. cerevisiae BY4741 background
T1 sequence (Q9UBL9 1-471 F303Y/A304W): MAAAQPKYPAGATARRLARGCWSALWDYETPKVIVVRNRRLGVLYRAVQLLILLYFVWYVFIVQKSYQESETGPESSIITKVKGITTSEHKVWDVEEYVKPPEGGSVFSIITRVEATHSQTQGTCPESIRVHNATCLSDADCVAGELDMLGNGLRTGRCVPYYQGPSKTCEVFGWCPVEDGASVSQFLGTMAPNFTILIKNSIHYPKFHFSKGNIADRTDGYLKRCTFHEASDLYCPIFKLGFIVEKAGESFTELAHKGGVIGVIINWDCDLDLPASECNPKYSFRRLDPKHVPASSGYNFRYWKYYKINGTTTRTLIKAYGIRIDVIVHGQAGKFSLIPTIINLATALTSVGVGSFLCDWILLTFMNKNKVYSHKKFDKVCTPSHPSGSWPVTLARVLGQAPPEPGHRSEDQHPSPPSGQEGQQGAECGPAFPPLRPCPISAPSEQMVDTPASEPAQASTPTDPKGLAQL
Protocol: (§1) Figure 4 Unnatural-ligand gating in LBD libraries.A, WT P2X2 was tested with 1 mM ATP, 500 μM AMP-PNP, and compared to ATP with the broken receptor (K81C K83C) control with 1 mM ATP in the fast GCaMP-mScarletI assay (n = 3). […] B, heat map summarizing AMP-PNP signaling (ΔF/ΔT, fast GCaMP-mScarletI assay) in the site-saturation libraries (n = 2–3). All values are normalized to WT P2X2 with saturating amounts of AMP-PNP (500 μM) and therefore represent low signal (ΔF/ΔT) compared to the ATP ligand. C, F301W, F303Y, and A304W were combinatorially combined and tested against the WT, K81C K83C broken P2X2, and the single mutant clones with both ATP (1 mM, black) and AMP-PNP (500 μM, pink). […] Values here represent signal onset and are not normalized to a positive control (n = 2–5). D–K, dose response of each P2X variant with both ATP (black) and AMP-PNP (pink) in the fast GCaMP-mScarletI assay (n = 3). Statistics were performed via one-way ANOVA with Dunnett’s multiple comparisons with to the “broken” K81C K83C negative control. ∗ represents a p value ≤0.05, ∗∗ is p ≤ 0.01, and ∗∗∗ is p ≤ 0.001.
The combined mutations were synergistic, with F303Y + A304W having a predicted additive effect of ca. Ten-fold, relative to the 73-fold seen.
(§2) GCaMP assays were performed as follows. P2X2 GCaMP strains were designed with a bi-cistronic reporter, in which the GCaMP protein was followed by a 2A peptide and a mScarletI reporter ([53]). The co-translated mScarletI was designed to act as a control for plasmid loss, GCaMP breakage via nonsense mutation, and contamination. […] P2X2-GCaMP strains were cultured and induced as previously described. Samples were induced for 24 h to allow for the accumulation of the mature GCaMP protein. Cells were washed three times in 0.1 M MES/Tris buffer and resuspended with MES/Tris with supplemental calcium. Cells were loaded onto a black, clear bottom microplate and imaged on a FlexStation3 plate reader. Samples were imaged in “flex” mode. Samples were imaged for 48 s at an interval of 1.6 s. Fluorescence was measured with an excitation at 485 nm, and emission 525 nm. At the 21 s mark, 100 μl ligand solution was transferred to the cells. For strains with mScarlet, fluorescence was read with excitation 570 nm/emission 610 nm. Slopes were calculated from the last 6 points of measurement and were normalized to the positive control samples. Any replicate in which the mScarlet value was measured to be over 2 standard deviations less than the mean for that set was discarded from further analysis.
(§3) For multiple comparisons in the site-saturation screening data, One-way ANOVA with Dunnett’s multiple comparisons test was performed where every sample was compared to the “broken” negative control. Significance was plotted where ∗ represents a p value ≤0.05, ∗∗ is p ≤0.01, and ∗∗∗ is p ≤0.001. Dose–response curves were fit with nonlinear regression software using a four-parameter logistic curve. All statistics were calculated and plotted in Graphpad Prism software.

[2] = biological target: T2, WT P2X2 (Homo sapiens, UniProt Q9UBL9); experiment: Fast GCaMP-mScarletI assay in yeast, WT P2X2; type: cell-based; settings: for Bottom, best fit value / Hillslope, best fit value / Top, best fit value: four-parameter logistic fit of ΔF/ΔT
T2 construct: expressed in transfected cells; host or cells: S. cerevisiae BY4741 background, P2X2 genome-integrated under a galactose-inducible promoter
T2 sequence (Q9UBL9 1-471): T1 sequence (Q9UBL9 1-471 F303Y/A304W) with Y303F, W304A
Protocol: as §1
Given that the yeast-based screen seemed to recapitulate important structural and functional features of human ion channel function, we hypothesized that it might be possible to engineer new P2X2 functionalities in yeast, including new ligand specificity. […] We screened our 133-member library in the presence of 500 μM AMP-PNP (Fig. S7). While the AMP-PNP signal was uniformly low, three substitutions (F301W, F303Y, and A304W) increased signaling 2.5 to 2.8 times relative to the negative control receptor (Figs. 4B, and S7, D, F, and G). To gain a more complete view of the properties of these mutants, dose–response curves were generated with ATP and AMP-PNP (Fig. 4, D–G, and Table S2).
as §2, §3

[3] = four-parameter logistic fit, n = 3, unit inferred, unit M, read-out: EC50, best fit value

| Structure (SMILES) | Bottom, best fit value ([1]; n = 3) | Hillslope, best fit value ([1]; n = 3) | Top, best fit value ([1]; n = 3) | pEC50 [1, 3] | Bottom, best fit value ([2]; n = 3) | Hillslope, best fit value ([2]; n = 3) | Top, best fit value ([2]; n = 3) | pEC50 [2, 3] | increased intracellular calcium amplitudes compared to the WT receptor ([1]; AMP-PNP, abstract) | increased signal compared to the WT channel (rate of signal onset ΔF/ΔT) ([1]; at 500 μM AMP-PNP) [fold] | signal of wildtype P2X2 receptor ([2]; 500 μM AMP-PNP, Fig. 4A) |
| --- | --- | --- | --- | --- | --- | --- | --- | --- | --- | --- | --- |
| Nc1ncnc2c1ncn2[C@@H]1O[C@H](COP(=O)(O)OP(=O)(O)OP(=O)(O)O)[C@@H](O)[C@H]1O [ATP] | 1.98 | 3.50 | 150.00 | 5.18 | 1.37 | 2.27 | 70.62 | 5.24 |  |  |  |
| Nc1ncnc2c1ncn2[C@@H]1O[C@H](COP(=O)(O)OP(=O)(O)NP(=O)(O)O)[C@@H](O)[C@H]1O [AMP-PNP] | 1.254 | 2.515 | 114.4 |  | 0.429 | -1 | 1.129 |  | over 100 fold | 73 | nearly undetectable signal |
